From US20260070945A1, “MACROCYCLIC IMMUNOMODULATORS” (Bristol-Myers Squibb Company, priority 2022, published 2026) come the findings set out here.

The IC50 is the point on the concentration scale where inhibition reaches its midpoint.

Where a SMILES comes first, the peptide text is derived from it. Bridges are numbered along the chain shown (N, C = ends). [ ]: non-standard residue; d: D form. The star is where a group is joined. Bip = N[C@@H](Cc1ccc(-c2ccccc2)cc1)C(=O)O; Phe(3-Me) = Cc1cccc(C[C@H](N)C(=O)O)c1; 4Pal = N[C@@H](Cc1ccncc1)C(=O)O; Cha = N[C@@H](CC1CCCCC1)C(=O)O; Carboxymethyl = O=C(O)C*; NMeA = CN[C@@H](C)C(=O)O; Orn = NCCC[C@H](N)C(=O)O; Aun = NCCCCCCCCCCC(=O)O; Dab = NCC[C@H](N)C(=O)O; AEEA = NCCOCCOCC(=O)O

The target in this assay is T1, PD-1/PD-L1 interaction (PE-labeled human PD-L1-Ig binding to Jurkat cell line over-expressing human PD-1) (Homo sapiens, UniProt Q15116).
T1 construct: expressed in transfected cells; host or cells: Jurkat
T1 sequence (Q15116 25-288): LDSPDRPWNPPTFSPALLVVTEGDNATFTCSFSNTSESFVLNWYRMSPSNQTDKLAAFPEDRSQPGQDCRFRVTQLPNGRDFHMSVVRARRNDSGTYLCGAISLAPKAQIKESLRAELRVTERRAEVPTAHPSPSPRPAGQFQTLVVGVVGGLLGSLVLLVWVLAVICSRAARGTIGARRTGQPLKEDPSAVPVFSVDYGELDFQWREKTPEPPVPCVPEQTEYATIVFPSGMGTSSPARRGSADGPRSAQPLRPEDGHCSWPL
The assay is described as follows: Jurkat-PD-1 Cell Binding High-Content Screening Assay (CBA). To be noted: Jurkat-hPD-1 cells, PE-labeled PD-L1-Ig 20 nM final; read-out: Jurkat HPD1 PDL1 IC50. In a few lines:
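Jurkat cells overexpressing human PD-1 (8×10^3/well, DMEM + 10% FCS) preincubated with compound 2 h at 37 °C, then PE-labelled human PD-L1-Ig (20 nM final) for 1 h. Cells fixed in paraformaldehyde with Hoechst 33342; bound PD-L1 quantified by high-content imaging.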
For the molecule `Cc1cccc(C[C@@H]2NC(=O)[C@H](CC(=O)O)NC(=O)[C@H](Cc3ccc(OCC(=O)O)cc3)NC(=O)[C@H]([C@@H](C)O)NC(=O)CSC[C@@H](C(=O)N[C@@H](CCN)C(=O)NCCOCCOCC(=O)NCCCCCCCCCCC(=O)O)NC(=O)[C@H](CO)NC(=O)[C@H](C(C)C)NC(=O)[C@H](CC3CCCCC3)NC(=O)[C@H](CCN)NC(=O)[C@@H](CC(C)C)NC(=O)[C@H](C)N(C)C(=O)[C@H](Cc3ccc(OCC(=O)O)cc3)NC(=O)[C@H](Cc3ccc(-c4ccccc4)cc3)NC(=O)[C@H](Cc3ccc(OCC(=O)O)cc3)NC2=O)c1` [Example 1368] ({CH2CO}-TY(Carboxymethyl)D[Phe(3-Me)]Y(Carboxymethyl)[Bip]Y(Carboxymethyl)[NMeA][dL][Dab][Cha]VSC[Dab][AEEA][Aun]-OH; thioether N-14), the IC50 came to 18.1 nM. The same measure for `Cc1cccc(C[C@@H]2NC(=O)[C@H](CC(=O)O)NC(=O)[C@H](Cc3ccc(OCC(=O)O)cc3)NC(=O)[C@H]([C@@H](C)O)NC(=O)CSC[C@@H](C(=O)N[C@@H](CCN)C(=O)NCCOCCOCC(=O)NCCCCCCCCCCC(=O)O)NC(=O)[C@H](CCC(=O)O)NC(=O)[C@H](C(C)C)NC(=O)[C@H](CC3CCCCC3)NC(=O)[C@H](CCN)NC(=O)[C@@H](CC(C)C)NC(=O)[C@H](C)N(C)C(=O)[C@H](Cc3ccc(OCC(=O)O)cc3)NC(=O)[C@H](Cc3ccc(-c4ccccc4)cc3)NC(=O)[C@H](Cc3ccc(OCC(=O)O)cc3)NC2=O)c1` [Example 1369] ({CH2CO}-TY(Carboxymethyl)D[Phe(3-Me)]Y(Carboxymethyl)[Bip]Y(Carboxymethyl)[NMeA][dL][Dab][Cha]VEC[Dab][AEEA][Aun]-OH; thioether N-14): 12 nM; for `Cc1cccc(C[C@@H]2NC(=O)[C@H](CC(=O)O)NC(=O)[C@H](Cc3ccc(OCC(=O)O)cc3)NC(=O)[C@H]([C@@H](C)O)NC(=O)CSC[C@@H](C(=O)N[C@@H](CCN)C(=O)NCCOCCOCC(=O)NCCCCCCCCCCC(=O)O)NC(=O)[C@H](CC(N)=O)NC(=O)[C@H](C(C)C)NC(=O)[C@H](CC3CCCCC3)NC(=O)[C@H](CCN)NC(=O)[C@@H](CC(C)C)NC(=O)[C@H](C)N(C)C(=O)[C@H](Cc3ccc(OCC(=O)O)cc3)NC(=O)[C@H](Cc3ccc(-c4ccccc4)cc3)NC(=O)[C@H](Cc3ccc(OCC(=O)O)cc3)NC2=O)c1` [Example 1370] ({CH2CO}-TY(Carboxymethyl)D[Phe(3-Me)]Y(Carboxymethyl)[Bip]Y(Carboxymethyl)[NMeA][dL][Dab][Cha]VNC[Dab][AEEA][Aun]-OH; thioether N-14): 13.9 nM. Next, `Cc1cccc(C[C@@H]2NC(=O)[C@H](CC(=O)O)NC(=O)[C@H](Cc3ccc(OCC(=O)O)cc3)NC(=O)[C@H]([C@@H](C)O)NC(=O)CSC[C@@H](C(=O)N[C@@H](CCCN)C(=O)NCCOCCOCC(=O)NCCCCCCCCCCC(=O)O)NC(=O)[C@H]([C@@H](C)O)NC(=O)[C@H](C(C)C)NC(=O)[C@H](CC3CCCCC3)NC(=O)[C@H](CCN)NC(=O)[C@@H](CC(C)C)NC(=O)[C@H](C)N(C)C(=O)[C@H](Cc3ccc(OCC(=O)O)cc3)NC(=O)[C@H](Cc3ccc(-c4ccccc4)cc3)NC(=O)[C@H](Cc3ccc(OCC(=O)O)cc3)NC2=O)c1` [Example 1371] ({CH2CO}-TY(Carboxymethyl)D[Phe(3-Me)]Y(Carboxymethyl)[Bip]Y(Carboxymethyl)[NMeA][dL][Dab][Cha]VTC[Orn][AEEA][Aun]-OH; thioether N-14): 27.5 nM; `Cc1cccc(C[C@@H]2NC(=O)[C@H](CC(=O)O)NC(=O)[C@H](Cc3ccc(OCC(=O)O)cc3)NC(=O)[C@H]([C@@H](C)O)NC(=O)CSC[C@@H](C(=O)N[C@@H](CCCN)C(=O)NCCOCCOCC(=O)NCCCCCCCCCCC(=O)O)NC(=O)[C@H](CO)NC(=O)[C@H](C(C)C)NC(=O)[C@H](CC3CCCCC3)NC(=O)[C@H](CCN)NC(=O)[C@@H](CC(C)C)NC(=O)[C@H](C)N(C)C(=O)[C@H](Cc3ccc(OCC(=O)O)cc3)NC(=O)[C@H](Cc3ccc(-c4ccccc4)cc3)NC(=O)[C@H](Cc3ccc(OCC(=O)O)cc3)NC2=O)c1` [Example 1372] ({CH2CO}-TY(Carboxymethyl)D[Phe(3-Me)]Y(Carboxymethyl)[Bip]Y(Carboxymethyl)[NMeA][dL][Dab][Cha]VSC[Orn][AEEA][Aun]-OH; thioether N-14): 28 nM. Next, `Cc1cccc(C[C@@H]2NC(=O)[C@H](CC(=O)O)NC(=O)[C@H](Cc3ccc(OCC(=O)O)cc3)NC(=O)[C@H]([C@@H](C)O)NC(=O)CSC[C@@H](C(=O)N[C@@H](CCCN)C(=O)NCCOCCOCC(=O)NCCCCCCCCCCC(=O)O)NC(=O)[C@H](CCC(=O)O)NC(=O)[C@H](C(C)C)NC(=O)[C@H](CC3CCCCC3)NC(=O)[C@H](CCN)NC(=O)[C@@H](CC(C)C)NC(=O)[C@H](C)N(C)C(=O)[C@H](Cc3ccc(OCC(=O)O)cc3)NC(=O)[C@H](Cc3ccc(-c4ccccc4)cc3)NC(=O)[C@H](Cc3ccc(OCC(=O)O)cc3)NC2=O)c1` [Example 1373] ({CH2CO}-TY(Carboxymethyl)D[Phe(3-Me)]Y(Carboxymethyl)[Bip]Y(Carboxymethyl)[NMeA][dL][Dab][Cha]VEC[Orn][AEEA][Aun]-OH; thioether N-14): 31.7 nM; `Cc1cccc(C[C@@H]2NC(=O)[C@H](CC(=O)O)NC(=O)[C@H](Cc3ccc(OCC(=O)O)cc3)NC(=O)[C@H]([C@@H](C)O)NC(=O)CSC[C@@H](C(=O)N[C@@H](CCCN)C(=O)NCCOCCOCC(=O)NCCCCCCCCCCC(=O)O)NC(=O)[C@H](CC(N)=O)NC(=O)[C@H](C(C)C)NC(=O)[C@H](CC3CCCCC3)NC(=O)[C@H](CCN)NC(=O)[C@@H](CC(C)C)NC(=O)[C@H](C)N(C)C(=O)[C@H](Cc3ccc(OCC(=O)O)cc3)NC(=O)[C@H](Cc3ccc(-c4ccccc4)cc3)NC(=O)[C@H](Cc3ccc(OCC(=O)O)cc3)NC2=O)c1` [Example 1374] ({CH2CO}-TY(Carboxymethyl)D[Phe(3-Me)]Y(Carboxymethyl)[Bip]Y(Carboxymethyl)[NMeA][dL][Dab][Cha]VNC[Orn][AEEA][Aun]-OH; thioether N-14): 17.4 nM; `Cc1cccc(C[C@@H]2NC(=O)[C@H](CC(=O)O)NC(=O)[C@H](Cc3ccc(OCC(=O)O)cc3)NC(=O)[C@H]([C@@H](C)O)NC(=O)CSC[C@@H](C(=O)N[C@@H](CCN)C(=O)NCCOCCOCC(=O)NCCCCCCCCCCC(=O)O)NC(=O)[C@H]([C@@H](C)O)NC(=O)[C@H](C(C)C)NC(=O)[C@H](CC3CCCCC3)NC(=O)[C@H](CCC(=O)O)NC(=O)[C@@H](CC(C)C)NC(=O)[C@H](C)N(C)C(=O)[C@H](Cc3ccc(OCC(=O)O)cc3)NC(=O)[C@H](Cc3ccc(-c4ccccc4)cc3)NC(=O)[C@H](Cc3ccc(OCC(=O)O)cc3)NC2=O)c1` [Example 1375] ({CH2CO}-TY(Carboxymethyl)D[Phe(3-Me)]Y(Carboxymethyl)[Bip]Y(Carboxymethyl)[NMeA][dL]E[Cha]VTC[Dab][AEEA][Aun]-OH; thioether N-14): 31.8 nM. For `Cc1cccc(C[C@@H]2NC(=O)[C@H](CC(=O)O)NC(=O)[C@H](Cc3ccc(OCC(=O)O)cc3)NC(=O)[C@H]([C@@H](C)O)NC(=O)CSC[C@@H](C(=O)N[C@@H](CCN)C(=O)NCCOCCOCC(=O)NCCCCCCCCCCC(=O)O)NC(=O)[C@H](CCCN)NC(=O)[C@H](C(C)C)NC(=O)[C@H](CC3CCCCC3)NC(=O)[C@H](CCC(=O)O)NC(=O)[C@@H](CC(C)C)NC(=O)[C@H](C)N(C)C(=O)[C@H](Cc3ccc(OCC(=O)O)cc3)NC(=O)[C@H](Cc3ccc(-c4ccccc4)cc3)NC(=O)[C@H](Cc3ccc(OCC(=O)O)cc3)NC2=O)c1` [Example 1376] ({CH2CO}-TY(Carboxymethyl)D[Phe(3-Me)]Y(Carboxymethyl)[Bip]Y(Carboxymethyl)[NMeA][dL]E[Cha]V[Orn]C[Dab][AEEA][Aun]-OH; thioether N-14), the IC50 was determined as 45.8 nM. In the case of `Cc1cccc(C[C@@H]2NC(=O)[C@H](CC(=O)O)NC(=O)[C@H](Cc3ccc(OCC(=O)O)cc3)NC(=O)[C@H]([C@@H](C)O)NC(=O)CSC[C@@H](C(=O)N[C@@H](CCN)C(=O)NCCOCCOCC(=O)NCCCCCCCCCCC(=O)O)NC(=O)[C@H](CC(N)=O)NC(=O)[C@H](C(C)C)NC(=O)[C@H](CC3CCCCC3)NC(=O)[C@H](CCC(=O)O)NC(=O)[C@@H](CC(C)C)NC(=O)[C@H](C)N(C)C(=O)[C@H](Cc3ccc(OCC(=O)O)cc3)NC(=O)[C@H](Cc3ccc(-c4ccccc4)cc3)NC(=O)[C@H](Cc3ccc(OCC(=O)O)cc3)NC2=O)c1` [Example 1377] ({CH2CO}-TY(Carboxymethyl)D[Phe(3-Me)]Y(Carboxymethyl)[Bip]Y(Carboxymethyl)[NMeA][dL]E[Cha]VNC[Dab][AEEA][Aun]-OH; thioether N-14), the IC50 was determined as 31 nM. The same measure for `CC(C)C[C@H]1NC(=O)[C@H](C)N(C)C(=O)[C@H](Cc2ccc(OCC(=O)O)cc2)NC(=O)[C@H](Cc2ccc(-c3ccccc3)cc2)NC(=O)[C@H](Cc2ccc(OCC(=O)O)cc2)NC(=O)[C@H](Cc2c[nH]c3ccccc23)NC(=O)[C@H](CC(=O)O)NC(=O)[C@H](Cc2ccncc2)NC(=O)[C@H](Cc2ccc(OCC(=O)O)cc2)NC(=O)CSC[C@@H](C(=O)N[C@@H](CCN)C(=O)NCCOCCOCC(=O)NCCCCCCCCCCC(=O)O)NC(=O)[C@H]([C@@H](C)O)NC(=O)[C@H](C(C)C)NC(=O)[C@H](CC2CCCCC2)NC(=O)[C@H](CC(N)=O)NC1=O` [Example 1378] ({CH2CO}-Y(Carboxymethyl)[4Pal]DWY(Carboxymethyl)[Bip]Y(Carboxymethyl)[NMeA][dL]N[Cha]VTC[Dab][AEEA][Aun]-OH; thioether N-14): 94.8 nM.
